Marks after values point to notes of the source that are not given here.
What was measured:
MPTP-treated mice = test: MPTP mouse Parkinson's model, striatal dopamine and metabolites by HPLC; format: in vivo, C57BL mice; conditions: for DA / DOPAC / HVA: striatal level, peptide 1 mg/kg intranasal, divided by total protein and normalized to vehicle treated mice
Procedure: C57BL mice (all male, age 8-12 weeks, obtained from Harlan Laboratories Israel) were administered with 18 mg/kg MPTP (Sigma-Aldrich) at a dosage volume of 100 μl/mouse by intraperitoneal (IP) injection twice daily, 3 hrs apart on days 1 and 2. On study day 0 and for 8 consecutive days, mice were administered intranasally with PBS (vehicle) or one of the peptides at 1 mg/kg in 12 μl/mouse. All peptides used in in vivo studies were synthesized by LifeTein and were modified with N terminal acetylation and C terminal amidation. For intranasal instillation, each mouse was mildly anesthetized (2.5% Isoflurane) then restrained and held with the neck parallel to the table while a total volume of 12 μl was administered into the nostril. Six (6) μl was administered to the left nostril as two 3 μl drops, followed by a 15 sec hold, and 6 μl was administered to the right nostril as two 3 μl drops, followed by a 15 seconds hold. On day 8 the animals were euthanized by cervical dislocation. Immediately after euthanasia, the brains were removed and the striata dissected (left and right striatum were pooled), weighed and frozen in dry ice. The striata samples were homogenized in a solution containing 0.1 M perchloric acid and 10 ng/ml 3,4 dihydroxybenzylamine (DHBA) by 5 seconds sonication at 80 W. The supernatants of each tissue extract were injected directly to HPLC pump (Jasco PU-2080Plus) onto a reverse phase column (GL-Science, Inertsil ODS-2 5 um 4.6×150 mm at room temperature) coupled to an electrochemical detector Coulochem II ESA with a conditioning cell model 5021 and analytical cell model 5011. The working potential was set to 0.35V on the conditioning cell and 0.1V and −0.35V on the analytical cell. The mobile phase was 0.05M monobasic sodium phosphate, with 80 mg/L EDTA, 125 mg/L heptane sulfonic acid, 55 ml of methanol and 50 ml of acetonitrile pH=2.7. The flow rate was 1.5 ml/min. The dopamine, DOPAC and HVA values were normalized to the lysate protein concentration (BCA kit, Pierce).
In this model, repeated itraperitoneal injections of MPTP (18 mg/kg at 3-h intervals on two consecutive days) result in dopaminergic neuronal death in the substantia nigra and dopamine depletion of the striatum. The peptides (or vehicle) were applied twice daily by intranasal instillation at 1 mg/kg starting 1 day prior to exposure to MPTP and continued until the end of the study. 7 days after the injection of MPTP mice were sacrificed and striatal levels of dopamine (DA), […] (DOPAC) and homovanillic acid (HVA) were evaluated by HPLC.
Specifically Table 2 illustrates the effect of human V6 and V 10-derived peptides (1 mg/kg, intranasal administration) on the striatal level of dopamine and metabolites in MPTP-treated mice. Mice were treated according to the protocol described in the Materials and Methods. Striatal levels of DA, DOPAC and HVA were determined by HPLC, divided by the total protein content value and normalized to the levels obtained in vehicle treated mice. Groups 1 and 3 treated with 1:1 mix of normal designated and retro-inverso analog (D amino acids at reversed sequence). Group 6 was treated with 1:1 mix of 10B2.5—6 and 10B2.5—9 peptides.

[1] = system: N2A mouse neuroblastoma cells; test: Protection of N2A cells from 6-OHDA (viability, alamar blue); format: cell-based; conditions: 30 or 40 μM 6-OHDA 22 hrs, peptide 10 fM and 1 μM
Procedure: All peptides were synthesized by LifeTein (South Pleinfield, N.J., USA) at >95% purity. N2A mouse neuroblastoma and SK-N-SH human neuroblastoma (ATCC) were maintained in Dulbecco's modified Eagle's medium supplemented with 10% fetal calf serum, L-Glut and 1% Penicillin-Streptomycin (Beit Haemek, Israel). Cells were maintained in an incubator at 37° C. with 5% CO2. SK-N-SH cells were treated with 3 μM RA (Sigma-Aldrich) for 5 days prior to each experiment to allow the cells to differentiate towards neuronal cells. […] The intensity of the water soluble dye is proportional to the number of metabolic active cells. […] The viability assay was followed by caspase 3 assay (EnzChek Caspase3 Assay kit, Invitrogen, Carlsbad, Calif., USA) according to the manufacture's instructions
All methods are the same as in Example 1 above. Peptides and 6-hydroxydopamine were purchased from Sigma-Aldrich (St. Lewis, USA).
These peptides were screened for their protective effect on 6-hydroxydopamine (6-OHDA) treated N2A cells at 1 pM concentration. 6-OHDA is a dopamine analogue that is commonly used in model systems to mimic Parkinson's disease in vitro and in vivo, 6-OHDA induces apoptosis through release of reactive oxygen species (ROS) and by a possible direct effect on the mitochondrial respiratory chain. […] The protective effect of some of the peptides was tested in a wide dose range. […] The peptide panel was also tested for their effect on Aβ (25-35) induced toxicity in SK-N-SH human neuroblastoma cells at pM concentration. The profile of peptides effective against the Aβ stress was strikingly different than the 6-OHDA-effective peptides (FIGS. 7A-B).
The peptides shown on Table 3 were tested for their effect in protecting N2A from 6-OHDA (FIG. 8). […] Such modifications include C-terminus truncation (26-1, 26-2 and 26-3), replacement of the N-terminal glutamic acid residue with glutamine and histidine at position 7 with alanine (26-8 and 26-9, respectively).

[2] = Pharmacokinetics after subcutaneous administration in rats (plasma, LC-MS/MS); format: in vivo, Sprague Dawley rats; conditions: subcutaneous 1 mg/kg; for Cmax: male, Sprague-Dawley, sc, rat plasma, read-out: apparent Cmax
Procedure: The pharmacokinetics of the peptides was evaluated following SC peptide administration in male Sprague Dawley rats. Peptide solution was prepared using phosphate buffer saline (pH 7.4) as vehicle and was administered through subcutaneously at the dose of 1 mg/kg with dosing volume of 2 mL/kg.
Blood samples were collected at 0 (pre-dose) and 0.17, 0.5, 1, 2, 4, 8 and 24 hours following administration. At each time point, approximately 0.25 mL of blood was withdrawn through jugular vein of the cannulated rats and transferred to a pre-labeled microfuge tube containing 200 mM K2EDTA (20 μL per mL of blood). Following sampling equal volume of heparinized saline was flushed in to catheter. Blood samples were centrifuged at 5000 g for 5 minutes at 4±2° C. All the plasma samples were stored below −70° C. until analysis. A fit-for-purpose LC-MS/MS method was used for the quantification of the peptides in plasma samples. The lower limit of quantification (LLOQ) was 22.34 ng/mL.

[3] = system: Met tyrosine kinase receptor; conditions: literature reference [24]; cited from earlier work
[4] = system: Aβ(1-42) microinjection rat model; test: Aβ(1-42) microinjection rat model, IH/ICV peptide, novel object recognition; format: in vivo, Sprague Dawley rats; conditions: 21 days after Aβ injection, p<0.01 versus vehicle
Procedure: Aβ(1-42) (Sigma-Aldrich, USA), was dissolved in filtered PBS at the concentration of 6 μg/μl, and the solution kept at 37° C. for 2 days before use. One microliter of the solution was injected by means of a microsyringe into the right hippocampus under sodium pentobarbital (55 mg/kg i.p.) anesthesia at the stereotaxic coordinates: AP=−3.6, ML=2.0, from Bregma and DV=3.0 from the skull. Control rats were injected with 1 μl of PBS. In the IH/ICV study, 1 μl of the peptide or PBS was also injected into the right hippocampus at the same stereotaxic coordinates.
For ICV injection, a microinjection cannula was planted into the lateral cerebral ventricle according to the following stereotaxic coordinates: AP=−1, ML=1.6, DV=3.8. […]
The training apparatus was a black Plexiglas box (50×50×40 cm) placed in a sound-attenuating cabinet which was located in a brightly lit and isolated room. […] During the training trial, the rat was placed in the box and allowed to explore two identical objects for 10 min and the total time spent exploring both objects was recorded. […] The rat was placed in the box for 3 min and the time spent exploring each object and the total time spent exploring both objects were recorded. The discrimination index used to assess memory was calculated as the difference in time exploring the novel and familiar object, expressed as the ratio of the total time spent exploring both objects. […]

TTLLEG (Human V10A1_N6 peptide)
DA (MPTP-treated mice): 17.7
DOPAC (MPTP-treated mice): 24.3
HVA (MPTP-treated mice): −0.7

hV10B3: human CD44V10-derived peptide, SEQ ID NO: 15; sequence not printed (SLSGDQDTFHPSG; Human V10B3 peptide)
levels of at least one of the 2 DA metabolites, DOPAC and HVA (MPTP-treated mice; 1 mg/kg intranasal): increased significantly
DA (MPTP-treated mice): 18.1
DOPAC (MPTP-treated mice): 22.5
HVA (MPTP-treated mice): 44.2 *

EGYTSHY (Human 26-1 peptide)
activity in protecting N2A from 6-OHDA [1]: maintaining at least partial activity

CC(=O)N1CCC[C@@H]1C(=O)N[C@H](Cc1ccc(O)cc1)C(=O)N[C@H](Cc1c[nH]cn1)C(=O)N[C@H](CO)C(=O)N[C@@H](C(=O)N[C@H](Cc1ccc(O)cc1)C(=O)NCC(=O)N[C@H](CCC(=O)O)C(N)=O)[C@H](C)O (relative stereo) [26-RI, *P*Y*H*S*T*Y*G*E]
Cmax [2]: 1.23 µg/mL
improvement of Cmax compared to P26 ([2]; rat): 10 fold

EGYTSH (Human 26-2 peptide)
activity in protecting N2A from 6-OHDA [1]: maintaining at least partial activity

NRWHE (A pentapeptide derived from the human V6)
inhibiting hepatocyte growth factor (HGF) signal transduction through Met tyrosine kinase receptor [3]: capable of inhibiting

EGYTS (Human 26-3 peptide)
activity in protecting N2A from 6-OHDA [1]: maintaining at least partial activity

FGVTAVTV (Human V10B1_8 peptide (also referred to as P34))
effect on striatal DA level compared to the vehicle control (MPTP-treated mice; 1 mg/kg intranasal): significantly positive effect
levels of at least one of the 2 DA metabolites, DOPAC and HVA (MPTP-treated mice; 1 mg/kg intranasal): increased significantly
DA (MPTP-treated mice): 46.6 *
DOPAC (MPTP-treated mice): 75.9 **
HVA (MPTP-treated mice): 83.3 **
discrimination index, novel object recognition ([4]; 10 ng/rat IH/ICV): increased significantly
discrimination index, novel object recognition ([4]; 100 ng/rat IH/ICV): increased significantly

hV10A2: human CD44V10-derived peptide, SEQ ID NO: 12; sequence not printed (TKESRTFIPVTSAKT; Human V10A2 peptide)
levels of at least one of the 2 DA metabolites, DOPAC and HVA (MPTP-treated mice; 1 mg/kg intranasal): increased significantly
DA (MPTP-treated mice): 24.7
DOPAC (MPTP-treated mice): 54.8 *
HVA (MPTP-treated mice): 73.4 **

EDSH (Human V6B1_C4 peptide) [hV6B1_C4]
DA (MPTP-treated mice): 20.7
DOPAC (MPTP-treated mice): 41.7
HVA (MPTP-treated mice): 16.6

NVNRSL (Human V10B2.5_6 peptide)
levels of at least one of the 2 DA metabolites, DOPAC and HVA (MPTP-treated mice; 1 mg/kg intranasal): increased significantly

EGYTSAYP (Human 26-9 peptide)
activity in protecting N2A from 6-OHDA [1]: maintaining at least partial activity

NVNRSLSGD (Human V10B2.5_9 peptide)
levels of at least one of the 2 DA metabolites, DOPAC and HVA (MPTP-treated mice; 1 mg/kg intranasal): increased significantly

PVTSAKTGSFG [V10A/B_S]
DA (MPTP-treated mice): 26.6
DOPAC (MPTP-treated mice): 27.2
HVA (MPTP-treated mice): 13.7

Ac-EGYTSHYP-NH2 (N-terminus and C-terminus assumed) [V10A1_N+4, EGYTSHYP]
Cmax [2]: 0.13 µg/mL

QGYTSHYP (Human 26-8 peptide)
activity in protecting N2A from 6-OHDA [1]: maintaining at least partial activity
